From patent US6569881B1, “Substituted benzimidazole, the production thereof and the use thereof as means against parasitic protozoa” (Bayer Aktiengesellschaft, priority 1999, dated 2003)

Columns and labels:
Assay type in all cases: in vivo, chicken chicks
Eimeria maxima = assay: Cage experiments coccidiosis/chicks, Eimeria maxima part of the mixed infection; details: for Efficacy against Eimeria maxima (grade): second symbol of cell; on Efficacy against Eimeria maxima (grade): key: 2 = complete action; 1 = weak action; 0 = inactive; D = death
Description: (§1) The efficacy of the compounds according to the invention can be confirmed, for example, in cage experiments using the following experimental arrangement, in which the animals are treated with the respective individual components and with the mixtures of the individual components.
(§2) An active compound-containing feed is prepared in such a way that the required amount of active compound is thoroughly mixed with a nutritionally balanced animal feed, e.g. with the chick feed indicated below.
(§3) 8 to 12 day-old male chicken chicks raised under coccidea-free conditions (e.g. LSL Brinkschulte/Senden) receive the compounds according to the invention (test substances) from 3 days before (day -3) the infection (=a.i.) until 8 (9) days after the infection (=p.i.) with the feed in the concentration indicated in ppm. Three animals are kept in each cage. Per dose, one to a number of groups of this type are employed. Infection is carried out by means of a stomach tube directly into the crop using approximately 100,000 sporulated oocysts of Eimeria acervulina and with in each case approximately 30,000 oocysts of E. maxima and 40,000 sporulated oocysts of E. tenella. These are highly virulent strains. The exact infectious dose is adjusted such that if possible one of three experimentally infected untreated chicks dies due to infection. For the assessment of the efficacy, the following criteria are taken into consideration: weight increase from the start of the experiment to the end of the experiment, death rate due to infection, macroscopic assessment of the faeces with respect to diarrhoea and excretion of blood on days 5 and 7 p.i. (grade 0 to 6), macroscopic grade of the intestinal mucous membrane, in particular of the cecums (grade 0 to 6) and the oocyst excretion and also the proportion (in %) of the oocysts sporulating within 24 hours. The number of oocysts in the faeces was determined with the aid of the McMaster counting chamber (see Engelbrecht and coworkers “Parasitologische Arbeitsmethoden in Medizin und Veterinärmedizin, [Parasitological working methods in medicine and veterinary medicine] Akademie-Verlag, Berlin (1965)). The individual findings are related to the untreated noninfected control groups and an overall grade is calculated (cf. A. Haberkorn (1986), pp. 263 to 270 in Research in Avian Coccidiosis ed L. R. McDougald, L. P. Joyner, P. L. Long Proceedings of the Georgia Coccidiosis Conference Nov, 18-20, 1985 Athens/Ga. USA).
(§4) In the columns “dropping scores”, “lesion score” and “oocyst control”, individual details of the action are given.

Eimeria tenella = assay: Cage experiments coccidiosis/chicks, Eimeria tenella part of the mixed infection; details: for Efficacy against Eimeria tenella (grade): third symbol of cell; on Efficacy against Eimeria tenella (grade): key: 2 = complete action; 1 = weak action; 0 = inactive; D = death
Description: as §1, §2, §3, §4

Eimeria acervulina = assay: Cage experiments coccidiosis/chicks, Eimeria acervulina part of the mixed infection; details: for Efficacy against Eimeria acervulina (grade): first symbol of cell; on Efficacy against Eimeria acervulina (grade): key: 2 = complete action; 1 = weak action; 0 = inactive; D = death
Description: as §1, §2, §3, §4

[1] = tested on: Eimeria acervulina, Eimeria maxima and Eimeria tenella; assay: Cage experiments coccidiosis/chicks, mixed experimental infection; details: for dropping scores / lesion score: grade 0 to 6
Description: as §1, §2, §3
In the column “ppm”, the concentration of the active compound employed in the feed is indicated in ppm.
In the column “mortality”, the percentage of the animals which have died is indicated under % and the number of the animals which have died/animals employed in the experiment is indicated under n.
In the column “weight % of not inf. control”, the ratio of the weight of the treated animals to the weight of the noninfected control group is indicated.
as §4
In the column “% efficacy”, the overall rating is assessed; 0% means no action, 100% means complete action.

[2] = 2.5 ppm in feed, listed as Ex. 13
[3] = 5 ppm in feed, listed as Ex. 13
[4] = 10 ppm in feed, listed as Ex. 13
[5] = 5 ppm in feed, listed as Ex. 15
[6] = 10 ppm in feed, listed as Ex. 15

## Cc1oc(=O)oc1Cn1c(C(F)(F)F)nc2cc(C(F)(F)F)c(C(F)(F)F)cc21 [Example 13]
Eimeria maxima; 2.5 ppm in feed
  oocyst in % of inf. control max.: 0%
Eimeria maxima; [2]
  oocyst in % of inf. control max.: 55%
Eimeria maxima; 5 ppm in feed
  oocyst in % of inf. control max.: 0%
Eimeria maxima; [3]
  oocyst in % of inf. control max.: 36%
Eimeria maxima; 7.5 ppm in feed
  oocyst in % of inf. control max.: 0%
Eimeria maxima; 10 ppm in feed
  oocyst in % of inf. control max.: 0%
Eimeria maxima; Dose 5 ppm
  Efficacy against Eimeria maxima (grade): 1
Eimeria maxima; Dose 10 ppm
  Efficacy against Eimeria maxima (grade): 2
Eimeria maxima; Dose 25 ppm
  Efficacy against Eimeria maxima (grade): D D D
Eimeria tenella; 2.5 ppm in feed
  oocyst in % of inf. control ten.: 27%
Eimeria tenella; [2]
  oocyst in % of inf. control ten.: >100%
Eimeria tenella; 5 ppm in feed
  oocyst in % of inf. control ten.: 3%
Eimeria tenella; [3]
  oocyst in % of inf. control ten.: 27%
Eimeria tenella; 7.5 ppm in feed
  oocyst in % of inf. control ten.: 0%
Eimeria tenella; 10 ppm in feed
  oocyst in % of inf. control ten.: 0%
Eimeria tenella; Dose 5 ppm
  Efficacy against Eimeria tenella (grade): 1
Eimeria tenella; Dose 10 ppm
  Efficacy against Eimeria tenella (grade): 2
Eimeria tenella; Dose 25 ppm
  Efficacy against Eimeria tenella (grade): D D D
Eimeria acervulina; 2.5 ppm in feed
  oocyst in % of inf. control ac.: 55%
Eimeria acervulina; [2]
  oocyst in % of inf. control ac.: 33%
Eimeria acervulina; 5 ppm in feed
  oocyst in % of inf. control ac.: 5%
Eimeria acervulina; [3]
  oocyst in % of inf. control ac.: 25%
Eimeria acervulina; 7.5 ppm in feed
  oocyst in % of inf. control ac.: 0%
Eimeria acervulina; 10 ppm in feed
  oocyst in % of inf. control ac.: 0%
Eimeria acervulina; Dose 5 ppm
  Efficacy against Eimeria acervulina (grade): 2
Eimeria acervulina; Dose 10 ppm
  Efficacy against Eimeria acervulina (grade): 2
Eimeria acervulina; Dose 25 ppm
  Efficacy against Eimeria acervulina (grade): D D D
[1]; 2.5 ppm in feed
  % efficacy tot.: 15%
  mortality %: 33%
  mortality n (died/employed): 1/3
  oocyst in % of inf. control tot.: 41%
  weight % of not inf. control: 61%
  dropping scores: 6
  lesion score: 6
[1]; [2]
  % efficacy tot.: 16%
  mortality %: 0%
  mortality n (died/employed): 0/3
  oocyst in % of inf. control tot.: 57%
[1]; 5 ppm in feed
  % efficacy tot.: 50%
  mortality %: 33%
  mortality n (died/employed): 1/3
  oocyst in % of inf. control tot.: 4%
  weight % of not inf. control: 74%
  dropping scores: 6
  lesion score: 6
[1]; [3]
  lesion score: 4.6
  % efficacy tot.: 32%
  mortality %: 0%
  mortality n (died/employed): 0/3
  oocyst in % of inf. control tot.: 26%
[1]; 7.5 ppm in feed
  % efficacy tot.: 74%
  mortality %: 0%
  mortality n (died/employed): 0/3
  oocyst in % of inf. control tot.: 0%
  weight % of not inf. control: 81%
  dropping scores: 6
  lesion score: 5.3
[1]; 10 ppm in feed
  % efficacy tot.: 73%
  mortality %: 0%
  mortality n (died/employed): 0/3
  oocyst in % of inf. control tot.: 0%
  weight % of not inf. control: 83%
  dropping scores: 6
  lesion score: 4.3
[1]; [4]
  lesion score: 5.3
  % efficacy tot.: 78%
  weight % of not inf. control: 76%

## Cc1oc(=O)oc1Cn1c(C(F)(F)F)nc2c(Cl)cc3c(c21)OC(F)(F)C(F)(F)O3 [Example 15]
Eimeria maxima; 2.5 ppm in feed
  oocyst in % of inf. control max.: 0%
Eimeria maxima; 5 ppm in feed
  oocyst in % of inf. control max.: 2%
Eimeria maxima; [5]
  oocyst in % of inf. control max.: 0%
Eimeria maxima; 7.5 ppm in feed
  oocyst in % of inf. control max.: 0%
Eimeria maxima; 10 ppm in feed
  oocyst in % of inf. control max.: 0%
Eimeria maxima; Dose 5 ppm
  Efficacy against Eimeria maxima (grade): 0
Eimeria maxima; Dose 10 ppm
  Efficacy against Eimeria maxima (grade): 1
Eimeria maxima; Dose 25 ppm
  Efficacy against Eimeria maxima (grade): 2
Eimeria tenella; 2.5 ppm in feed
  oocyst in % of inf. control ten.: 48%
Eimeria tenella; 5 ppm in feed
  oocyst in % of inf. control ten.: 0%
Eimeria tenella; [5]
  oocyst in % of inf. control ten.: 23%
Eimeria tenella; 7.5 ppm in feed
  oocyst in % of inf. control ten.: 12%
Eimeria tenella; 10 ppm in feed
  oocyst in % of inf. control ten.: 0%
Eimeria tenella; [6]
  oocyst in % of inf. control ten.: 1%
Eimeria tenella; Dose 5 ppm
  Efficacy against Eimeria tenella (grade): 1
Eimeria tenella; Dose 10 ppm
  Efficacy against Eimeria tenella (grade): 2
Eimeria tenella; Dose 25 ppm
  Efficacy against Eimeria tenella (grade): 1
Eimeria acervulina; 2.5 ppm in feed
  oocyst in % of inf. control ac.: 48%
Eimeria acervulina; 5 ppm in feed
  oocyst in % of inf. control ac.: 2%
Eimeria acervulina; [5]
  oocyst in % of inf. control ac.: 49%
Eimeria acervulina; 7.5 ppm in feed
  oocyst in % of inf. control ac.: 16%
Eimeria acervulina; 10 ppm in feed
  oocyst in % of inf. control ac.: 0%
Eimeria acervulina; [6]
  oocyst in % of inf. control ac.: 2%
Eimeria acervulina; Dose 5 ppm
  Efficacy against Eimeria acervulina (grade): 1
Eimeria acervulina; Dose 10 ppm
  Efficacy against Eimeria acervulina (grade): 2
Eimeria acervulina; Dose 25 ppm
  Efficacy against Eimeria acervulina (grade): 2
[1]; 2.5 ppm in feed
  % efficacy tot.: 43%
  mortality %: 0%
  mortality n (died/employed): 0/3
  oocyst in % of inf. control tot.: 48%
  weight % of not inf. control: 80%
  dropping scores: 1
  lesion score: 6
[1]; 5 ppm in feed
  % efficacy tot.: 75%
  mortality %: 0%
  mortality n (died/employed): 0/3
  oocyst in % of inf. control tot.: 1%
  weight % of not inf. control: 85%
  dropping scores: 6
  lesion score: 1
[1]; [5]
  lesion score: 6
  % efficacy tot.: 23%
  oocyst in % of inf. control tot.: 31%
  weight % of not inf. control: 75%
[1]; 7.5 ppm in feed
  % efficacy tot.: 60%
  mortality %: 0%
  mortality n (died/employed): 0/3
  oocyst in % of inf. control tot.: 13%
  weight % of not inf. control: >100%
  dropping scores: 6
  lesion score: 2
[1]; 10 ppm in feed
  % efficacy tot.: 91%
  mortality %: 0%
  mortality n (died/employed): 0/3
  oocyst in % of inf. control tot.: 0%
  weight % of not inf. control: 82%
  dropping scores: 0
  lesion score: 0
[1]; [6]
  lesion score: 1
  % efficacy tot.: 89%
  oocyst in % of inf. control tot.: 1%
  weight % of not inf. control: 92%
[1]; 25 ppm in feed
  mortality %: 100%
  mortality n (died/employed): 3/3
  dropping scores: 0
